Holding throughout (assay): NCI anticancer screen, dose series, 48 h
For assay [1], the system named is 786-0.
Assay [2] deals with ACHN.
Assay [3] concerns EKVX.
In assay [4] the test system is HCC 2998.
The subject of assay [5] is HCT-116.
Assay [6] has as its system IGROV-1.
Assay [7] concerns MOLT-4.
Assay [8] deals with Malme-3M.
Assay [9] has as its system NCI-H226.
Assay [10] relates to NCI-H460.
Assay [11] concerns SK-MEL-2.
Assay [12] concerns SK-OV-3.
The test system of assay [13] is SN12C.
For assay [14], the system named is SNB-19.
Assay [15] concerns SR.
The subject of assay [16] is UACC-62.
The subject of assay [17] is UO-31.
In assay [18] the test system is MDA-N.
The test system of assay [19] is T47D.

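Assay format: 96-well plates, 48-hour exposure. Abbreviation: GI50, concentration required for 50% inhibition of growth.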 Active and inactive are the calls of the source. No stated cut-off is given here; in the data, active = GI50 up to about 1.1 µM and inactive = higher.

Regarding `COc1cccc(NC(=O)CC(=O)N2NC(C)C(/N=N/c3cccc(C(=O)O)c3)C2=O)c1` (stereo not drawn), the GI50 in assay [1], in assay [2], in assay [3], in [4], in assay [5] and in assay [6] was > 100 µM (inactive) in each case. Moreover, the GI50 in assay [7], in [8], in assay [9], in assay [10], in assay [11] and in assay [12] was > 100 µM (inactive) throughout. Besides, the GI50 in assay [13], in assay [14], in assay [15], in assay [16] and in [17] was > 100 µM (inactive) in each case.

Regarding `CCOC(=O)/C(C(C)=O)=C1/N[C@H](C(=O)OCC)CS1`, the GI50 in [1], in assay [2], in assay [3], in assay [4], in [5] and in [6] was > 100 µM (inactive) in each case. Besides, the GI50 in assay [7], in assay [8], in assay [9], in [10], in assay [11] and in assay [13] was > 100 µM (inactive) each time. The GI50 in assay [14], in assay [15], in assay [16] and in [17] was > 100 µM (inactive) throughout.

Turning to `COC(=O)C1(C(=O)OC)CC2=C(S(=O)(=O)c3ccccc3)C[C@H](C#N)[C@H]2C1`, the GI50 in assay [1] was > 100 µM (inactive); in assay [2], > 100 µM (inactive); in assay [3], > 100 µM (inactive); in [5], > 100 µM (inactive); in assay [6], 44.6 µM (inactive); in assay [18], 79.4 µM (inactive). Moreover, the GI50 in assay [7], in [8], in [9], in assay [11], in assay [12] and in assay [13] was > 100 µM (inactive) each time. Moreover, the GI50 is 64.6 µM (inactive) in assay [14], 57.5 µM (inactive) in assay [19], > 100 µM (inactive) in assay [16] and > 100 µM (inactive) in assay [17].

On to `CC(=O)O[C@@]1(C)[C@@H](C)C(=O)O[C@@H]2CCN3CC=C(COC(=O)[C@]1(C)O)[C@H]23`, for which the GI50 in assay [1], in assay [2], in assay [4], in assay [5], in assay [6] and in assay [7] was > 100 µM (inactive) each time. In addition, the GI50 in assay [8], in assay [9], in [10], in assay [11], in assay [14] and in [15] was > 100 µM (inactive) throughout. Besides, the GI50 in [16] and in [17] was > 100 µM (inactive) in each case.

Take `CC1(C)N=C(c2ccccn2)C(c2ccccn2)=NC1(C)C`: the GI50 in assay [1], in [2], in assay [3], in assay [4], in assay [5] and in [6] was > 100 µM (inactive) each time. For the same compound, the GI50 in [7], in assay [8], in assay [9], in [10], in assay [11] and in assay [13] was > 100 µM (inactive) throughout. Besides, the GI50 in assay [14], in assay [15], in [16] and in assay [17] was > 100 µM (inactive) each time.

Take `C/C(=C\COP(=O)(O)OP(=O)(O)O)CC/C=C(\C)CNc1c(F)c(F)c(F)c(F)c1F`: the GI50 in [1] is > 100 µM (inactive); in [2], > 100 µM (inactive); in [3] it was > 54.3 µM (inactive); in assay [4], > 100 µM (inactive); in assay [5], > 25.5 µM (inactive); in assay [6], > 86.3 µM (inactive). The GI50 was > 100 µM (inactive) in assay [7]; 20.3 µM (inactive) in [9]; > 100 µM (inactive) in assay [10]; > 100 µM (inactive) in assay [11]; > 100 µM (inactive) in assay [12]; > 56.1 µM (inactive) in assay [13]. The GI50 is > 100 µM (inactive) in assay [14]; 0.0695 µM (active) in [15]; > 100 µM (inactive) in assay [19]; > 51.9 µM (inactive) in assay [16]; > 100 µM (inactive) in assay [17].

For `CCOC(=N)CC(=O)Nc1cccc(Cl)c1`, the GI50 in assay [1] is > 100 µM (inactive); in [2], > 100 µM (inactive); in assay [3] it was > 100 µM (inactive); in assay [4], 67 µM (inactive); in [5], > 100 µM (inactive); in [6], > 100 µM (inactive). The GI50 is > 100 µM (inactive) in assay [7]; 31.7 µM (inactive) in assay [8]; > 100 µM (inactive) in [9]; > 100 µM (inactive) in assay [10]; > 100 µM (inactive) in [11]; > 100 µM (inactive) in assay [12]. The GI50 in assay [13] was 51.2 µM (inactive); in assay [14], > 100 µM (inactive); in assay [15], > 100 µM (inactive); in [16] it was > 100 µM (inactive); in assay [17], > 100 µM (inactive).

Regarding `CN1C(=O)C(C)(C)C2(SC(C)(C)C2(C)C)N(C)C1=S` (stereo not drawn), the GI50 was > 100 µM (inactive) in assay [1]; > 100 µM (inactive) in [2]; 32 µM (inactive) in assay [3]; > 100 µM (inactive) in [4]; > 100 µM (inactive) in [5]; > 100 µM (inactive) in assay [6]. For the same compound, the GI50 is 89.3 µM (inactive) in assay [7]; > 100 µM (inactive) in assay [8]; > 100 µM (inactive) in [9]; > 100 µM (inactive) in assay [10]; > 100 µM (inactive) in assay [11]; 36.1 µM (inactive) in assay [12]. Also, the GI50 in assay [13] was > 100 µM (inactive); in assay [14] it was > 100 µM (inactive); in assay [15] it was 55.3 µM (inactive); in [16], 2.12 µM (inactive); in assay [17] it was > 100 µM (inactive).

Turning to `COc1cccc2nc3c(C(=O)NCCN(C)C)cccc3nc12`, the GI50 in [1] was 10.6 µM (inactive); in assay [2], 4.3 µM (inactive); in assay [3], 12.6 µM (inactive); in assay [4] it was 10.8 µM (inactive); in assay [5], 3.79 µM (inactive); in assay [6], 16.1 µM (inactive). For the same compound, the GI50 is 3.61 µM (inactive) in assay [7]; 7.96 µM (inactive) in assay [8]; 5.27 µM (inactive) in assay [9]; 3.78 µM (inactive) in assay [10]; 8.73 µM (inactive) in assay [11]; 25.1 µM (inactive) in assay [12]. Moreover, the GI50 in assay [13] is 9.2 µM (inactive); in assay [14], 17.4 µM (inactive); in assay [15], 3.38 µM (inactive); in assay [16] it was 12.6 µM (inactive); in assay [17], 12.2 µM (inactive).

Turning to `[N-]=[N+]=C1C(=O)C2CC3CC1CC2C3` (stereo not drawn), the GI50 in assay [1], in [2], in assay [3], in [4], in assay [5] and in [6] was > 100 µM (inactive) throughout. Moreover, the GI50 in assay [7], in assay [8], in [9], in [10], in assay [11] and in [12] was > 100 µM (inactive) in each case. In addition, the GI50 in assay [13], in [14], in assay [15], in assay [16] and in assay [17] was > 100 µM (inactive) in each case.

Consider `CC1=C(C(=O)Nc2ccccc2C)C(c2ccccc2)C(C(=O)Nc2ccccc2C)=C(C)N1`, for which the GI50 in [1] was 68.9 µM (inactive); in [2], 26.3 µM (inactive); in assay [3], 27.7 µM (inactive); in assay [4], 32.4 µM (inactive); in [5], 24.3 µM (inactive); in assay [6], 42.7 µM (inactive). Further, the GI50 is 9.95 µM (inactive) in assay [7]; 35.1 µM (inactive) in assay [8]; > 100 µM (inactive) in assay [9]; 33.6 µM (inactive) in [10]; 26.6 µM (inactive) in assay [11]; > 100 µM (inactive) in assay [12]. Also, the GI50 is 56.6 µM (inactive) in assay [13]; 45.8 µM (inactive) in assay [14]; 11.7 µM (inactive) in assay [15]; 27.1 µM (inactive) in [16]; 35.2 µM (inactive) in assay [17].

In the case of `COc1ccc(/C=C(/C(=O)O)c2cc(OC)c(OC)c(OC)c2)cc1`, the GI50 was 41.3 µM (inactive) in assay [1]; > 100 µM (inactive) in assay [2]; > 100 µM (inactive) in assay [3]; > 100 µM (inactive) in [4]; 53.3 µM (inactive) in [5]; > 100 µM (inactive) in assay [6]. In addition, the GI50 in assay [7] was 45.4 µM (inactive); in [8], 30.1 µM (inactive); in assay [9] it was 44.8 µM (inactive); in assay [10], 48.1 µM (inactive); in assay [11], 47.5 µM (inactive); in [12] it was > 100 µM (inactive). Further, the GI50 was 46.9 µM (inactive) in [13]; 59.4 µM (inactive) in assay [14]; 43.3 µM (inactive) in [15]; 43.6 µM (inactive) in [16]; 39.5 µM (inactive) in [17].
